Source: PubChem BioAssay (NCI)
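Where inhibition never reached the appropriate level, the endpoint shown equals the highest concentration tested. Otherwise, values were interpolated linearly from a five-concentration, 48-hour dose response in 96-well plates. At the GI50, growth is halved. Definition used: TGI = concentration required for complete inhibition of growth.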

What was measured:
Assay in all cases: NCI tumour cell line growth inhibition, 48 h
[1] = system: U251 CNS
[2] = system: M14 melanoma
[3] = system: UACC-257 melanoma
[4] = system: 786-0 renal
[5] = system: SK-MEL-28 melanoma
[6] = system: OVCAR-3 ovarian
[7] = system: SF-295 CNS
[8] = system: A549 NSCLC
[9] = system: NCI-H226 lung
[10] = system: HS 578T breast
[11] = system: HT29 colon
[12] = system: SK-MEL-2 melanoma
[13] = system: IGROV1 ovarian
[14] = system: NCI-H460 lung
[15] = system: SK-MEL-5 melanoma
[16] = system: NCI-H522 lung
[17] = system: RXF 393 renal
[18] = system: A498 renal
[19] = system: SNB-75 CNS
[20] = system: SW-620 colon
[21] = system: EKVX NSCLC
[22] = system: ACHN renal
[23] = system: SN12C renal
[24] = system: K-562 leukemia
[25] = system: HCC-2998 colon
[26] = system: CAKI-1 renal
[27] = system: SK-OV-3 ovarian
[28] = system: CCRF-CEM leukemia
[29] = system: MDA-MB-435
[30] = system: HL-60(TB) leukemia
[31] = system: HOP-92 NSCLC
[32] = system: SR leukemia
[33] = system: RPMI-8226 leukemia
[34] = system: SF-539 CNS
[35] = system: PC-3 prostate
[36] = system: UO-31 renal
[37] = system: SF-268 CNS
[38] = system: MDA-MB-231 breast
[39] = system: HOP-62 NSCLC
[40] = system: LOX IMVI melanoma
[41] = system: HCT-15 colon
[42] = system: OVCAR-4 ovarian
[43] = system: NCI-H23 lung
[44] = system: T-47D breast
[45] = system: COLO 205 colon
[46] = system: MALME-3M melanoma
[47] = system: TK-10 renal
[48] = system: OVCAR-5 ovarian
[49] = system: UACC-62 melanoma
[50] = system: KM12 colon
[51] = system: MOLT-4 leukemia
[52] = system: MCF7 breast
[53] = system: BT-549 breast
[54] = system: DU-145 prostate
[55] = system: NCI/ADR-RES ovarian
[56] = system: SNB-19 CNS
[57] = system: HCT-116 colon
[58] = system: OVCAR-8 ovarian

In the case of N#Cc1cnn(C(=O)c2nn(-c3ccc(Cl)cc3)cc2O)c1N, the GI50 [1] is reported as 0.284 µM, the TGI [1] is reported as 20.6 µM and the GI50 [2] is reported as 0.462 µM. The TGI [2] was 8.01 µM, the GI50 [3] was 0.47 µM and the TGI [3] was 10.6 µM. It also gave a GI50 [4] of 0.658 µM, a TGI [4] of 16.3 µM and a GI50 [5] of 0.63 µM. For the same molecule, the TGI [5] was 27.3 µM, the GI50 [6] was 0.545 µM and the TGI [6] was 8.44 µM. The GI50 [7] was 0.163 µM, the TGI [7] was 0.646 µM and the GI50 [8] was 0.201 µM. For the same molecule, the TGI [8] was 16.5 µM, the GI50 [9] was 0.349 µM and the TGI [9] was 7.45 µM. The GI50 [10] was 0.192 µM, the TGI [10] was 3.43 µM and the GI50 [11] was 1 µM. For the same molecule, the TGI [11] was 14.3 µM, the GI50 [12] was 0.908 µM and the TGI [12] was 18.9 µM. It also gave a GI50 [13] of 0.365 µM, a TGI [13] of 12.7 µM and a GI50 [14] of 0.189 µM. The TGI [14] was 0.507 µM, the GI50 [15] was 0.464 µM and the TGI [15] was 2.51 µM. For the same molecule, the GI50 [16] was 0.173 µM, the TGI [16] was 1.47 µM and the GI50 [17] was 0.161 µM. It also gave a TGI [17] of 3.91 µM, a GI50 [18] of 0.174 µM and a TGI [18] of 0.626 µM. The GI50 [19] was 0.248 µM, the TGI [19] was 17.8 µM and the GI50 [20] was 0.521 µM. For the same molecule, the TGI [20] was 21 µM, the GI50 [21] was 0.378 µM and the TGI [21] was 10.4 µM. For the same molecule, the GI50 [22] was 0.322 µM, the TGI [22] was 12.5 µM and the GI50 [23] was 0.342 µM. For the same molecule, the TGI [23] was 17.5 µM, the GI50 [24] was 0.253 µM and the GI50 [25] was 0.623 µM. For the same molecule, the TGI [25] was 18 µM, the GI50 [26] was 0.259 µM and the TGI [26] was 1.47 µM. It also gave a GI50 [27] of 0.521 µM, a TGI [27] of 11.3 µM and a GI50 [28] of 0.279 µM. The TGI [28] was 4.03 µM, the GI50 [29] was 0.312 µM and the TGI [29] was 18.9 µM. The GI50 [30] was 0.354 µM, the TGI [30] was 2.27 µM and the GI50 [31] was 0.405 µM. It also gave a TGI [31] of 27.3 µM, a GI50 [32] of 0.278 µM and a TGI [32] of 0.983 µM. For the same molecule, the GI50 [33] was 0.21 µM, the TGI [33] was 0.657 µM and the GI50 [34] was 0.323 µM. For the same molecule, the TGI [34] was 7.85 µM, the GI50 [35] was 0.322 µM and the TGI [35] was 7.28 µM. The GI50 [36] was 0.292 µM, the TGI [36] was 5.81 µM and the GI50 [37] was 0.439 µM. For the same molecule, the TGI [37] was 23.8 µM, the GI50 [38] was 0.708 µM and the TGI [38] was 19.2 µM. The GI50 [39] was 0.392 µM, the TGI [39] was 17.4 µM and the GI50 [40] was 0.434 µM. The TGI [40] was 12 µM, the GI50 [41] was 0.338 µM and the TGI [41] was 13.1 µM. The GI50 [42] was 0.456 µM, the TGI [42] was 37.4 µM and the GI50 [43] was 0.371 µM. The TGI [43] was 15.1 µM, the GI50 [44] was 0.294 µM and the TGI [44] was 19.1 µM. It also gave a GI50 [45] of 0.619 µM, a TGI [45] of 2.13 µM and a GI50 [46] of 0.926 µM. For the same molecule, the TGI [46] was 13.6 µM, the GI50 [47] was 0.267 µM and the TGI [47] was 7.34 µM. For the same molecule, the GI50 [48] was 0.61 µM, the TGI [48] was 21.6 µM and the GI50 [49] was 0.303 µM. It also gave a TGI [49] of 2.22 µM, a GI50 [50] of 0.374 µM and a TGI [50] of 22.2 µM. It also gave a GI50 [51] of 0.373 µM, a TGI [51] of 4.06 µM and a GI50 [52] of 0.373 µM. The TGI [52] was 10.5 µM, the GI50 [53] was 0.287 µM and the TGI [53] was 7.17 µM. The GI50 [54] was 0.57 µM, the TGI [54] was 28.4 µM and the GI50 [55] was 0.401 µM. The TGI [55] was 8.78 µM, the GI50 [56] was 0.443 µM and the TGI [56] was > 60.5 µM. It also gave a GI50 [57] of 0.26 µM, a TGI [57] of 10.9 µM and a GI50 [58] of 0.474 µM. For the same molecule, the TGI [58] was > 44.4 µM.
In the case of COc1cc(F)c(F)c(Nc2ccc(I)cc2F)c1NS(=O)(=O)C1(CC(O)CO)CC1 (stereo unspecified), the GI50 [1] is reported as 15.2 µM, the TGI [1] is reported as 39.9 µM and the GI50 [2] is reported as 3.04 µM. It also gave a TGI [2] of 15.5 µM, a GI50 [3] of 3.05 µM and a TGI [3] of 19.5 µM. For the same molecule, the GI50 [4] was 16.8 µM, the TGI [4] was 38.7 µM and the GI50 [5] was 3.02 µM. For the same molecule, the TGI [5] was 13.7 µM, the GI50 [6] was 14.6 µM and the TGI [6] was 36.4 µM. The GI50 [7] was 15 µM, the TGI [7] was 32.5 µM and the GI50 [8] was 15.4 µM. For the same molecule, the TGI [8] was > 64.9 µM, the GI50 [9] was 15.2 µM and the TGI [9] was 49.2 µM. For the same molecule, the GI50 [10] was 10.8 µM, the TGI [10] was 55.4 µM and the GI50 [11] was 4.5 µM. It also gave a TGI [11] of 22.5 µM, a GI50 [12] of 4.1 µM and a TGI [12] of 18.8 µM. It also gave a GI50 [13] of 10.4 µM, a TGI [13] of 34.4 µM and a GI50 [14] of 13.9 µM. The TGI [14] was 33.2 µM, the GI50 [15] was 8.12 µM and the TGI [15] was 21.9 µM. For the same molecule, the GI50 [16] was 11.5 µM, the TGI [16] was 29.9 µM and the GI50 [17] was 5.78 µM. It also gave a TGI [17] of 19.7 µM, a GI50 [18] of 10.1 µM and a TGI [18] of 28.1 µM. The GI50 [19] was 6.29 µM, the TGI [19] was 49.2 µM and the GI50 [20] was 13.6 µM. The TGI [20] was > 59.5 µM, the GI50 [21] was 13.4 µM and the TGI [21] was 57.2 µM. The GI50 [22] was 17 µM, the TGI [22] was > 73.9 µM and the GI50 [23] was 12.5 µM. The TGI [23] was 38.6 µM, the GI50 [24] was 15.7 µM and the TGI [24] was > 81.7 µM. For the same molecule, the GI50 [25] was 10.8 µM, the TGI [25] was 25.5 µM and the GI50 [26] was 10.2 µM. For the same molecule, the TGI [26] was 54.4 µM, the GI50 [27] was 25.8 µM and the TGI [27] was > 79.6 µM. For the same molecule, the GI50 [28] was 19.8 µM, the TGI [28] was > 72.3 µM and the GI50 [29] was 4.63 µM. For the same molecule, the TGI [29] was 22.3 µM, the GI50 [30] was 7.19 µM and the TGI [30] was 57.7 µM. The GI50 [31] was 1.13 µM, the TGI [31] was 19.6 µM and the GI50 [32] was 15.7 µM. The TGI [32] was > 69.4 µM, the GI50 [33] was 16 µM and the TGI [33] was 54.6 µM. The GI50 [34] was 15.8 µM, the TGI [34] was 33.8 µM and the GI50 [35] was 15.1 µM. The TGI [35] was > 57.5 µM, the GI50 [36] was 10.4 µM and the TGI [36] was 40.2 µM. The GI50 [37] was 15.6 µM, the TGI [37] was 55 µM and the GI50 [38] was 11 µM. For the same molecule, the TGI [38] was 27.3 µM, the GI50 [39] was 14 µM and the TGI [39] was 32.4 µM. The GI50 [40] was 4.92 µM, the TGI [40] was 17.6 µM and the GI50 [41] was 14.6 µM. The TGI [41] was 47.4 µM, the GI50 [42] was 16.6 µM and the TGI [42] was > 91.9 µM. For the same molecule, the GI50 [43] was 12.1 µM, the TGI [43] was 36.4 µM and the GI50 [44] was 15.7 µM. For the same molecule, the TGI [44] was > 75.5 µM, the GI50 [45] was 3.43 µM and the TGI [45] was 16.1 µM. It also gave a GI50 [46] of 1.02 µM, a TGI [46] of 8.02 µM and a GI50 [47] of 14.9 µM. The TGI [47] was 72.1 µM, the GI50 [48] was 10.2 µM and the TGI [48] was 30.1 µM. The GI50 [49] was 1.96 µM, the TGI [49] was 9.81 µM and the GI50 [50] was 13.3 µM. The TGI [50] was 30.9 µM, the GI50 [51] was 15.2 µM and the TGI [51] was 52.3 µM. It also gave a GI50 [52] of 16.6 µM, a TGI [52] of 43.7 µM and a GI50 [53] of 14.6 µM. For the same molecule, the TGI [53] was 35.2 µM, the GI50 [54] was 19.4 µM and the TGI [54] was 54 µM. It also gave a GI50 [55] of 18.8 µM, a TGI [55] of 57.9 µM and a GI50 [56] of 11 µM. For the same molecule, the TGI [56] was 50.1 µM, the GI50 [57] was 13.5 µM and the TGI [57] was 31.6 µM. It also gave a GI50 [58] of 18.7 µM and a TGI [58] of 61 µM.
